Legend:
[1] = test system: filaggrin (FLG) expression; test: Ex vivo skin model, filaggrin immunohistochemical staining; assay type: cell-based, human; details: 0.1% acetyl trifluoromethylphenyl valylglycine added to 0.003% retinol, 7-day culture
Experimental: The effect of acetyl trifluoromethylphenyl valylglycine and/or retinoids on skin turnover/desquamation, filaggrin expression, desmocollin-1 expression was evaluated in an ex vivo skin model. In this study, the effects of acetyl trifluoromethylphenyl valylglycine (0.1%), retinol (0.003%) and acetyl trifluoromethylphenyl valylglycine+retinol on the skin were evaluated by H&E (assessing for overall tissue health), filaggrin (assessing the level of barrier renewal) and desmocollin-1 (assessing the tight junction between the keratinocytes).
Fresh post-abdominoplasty normal human skin samples (3 lots, age 36-59 years old, Hispanic/Caucasian/African American, female) were acquired from BioIVT Inc. (Westbury, N.Y.). Tissue was defatted and cleaned of blood residue. Explant samples were then created using a 12 mm biopsy punch. Samples were cleaned with sterile PBS. Skin biopsies not receiving treatment served as controls. Skin explants were maintained at air-liquid interface at 37° C. and 5% CO2 in four different treatment groups (n=3 per media type): • 1. […]
Skin explants were processed for haematoxylin and eosin, and immunohistochemical staining (Reveal Biosciences, CA). […] The primary staining was followed by rabbit anti-mouse IgG or anti-rabbit Poly-HRP-IgG respectively and were detected using the Bond Polymer Refine Detection kit (DS9800, Leica Biosystems, UK). […]

[2] = assay type: in vitro ADME, human
Experimental: Human skin samples were obtained from abdominal surgery. Excess subcutaneous fat was removed, if necessary. Skin samples were excised and cut into pieces of around 2 cm×2 cm. Thickness was measured and transepidermal water loss (TEWL) was measured. The human skin was included in the study if the TEWL was between 0.5 and 13 g/m^2/h for abdominal skin. The 2 cm^2 skin samples were kept in a static cell in a diffusion chamber in a Franz cell horizontal cell clamp system (Crown Glass Company, Inc.) and maintained at a constant temperature of 32° C.±1° C. The static cells consist of a donor chamber and a receptor chamber with a 7 mL receptor fluid compartment separated by the skin.
The cells were placed on a magnetic stirrer which was integrated with a fixed temperature water bath maintained in order to have 32° C.±1° C. at the skin surface. The receptor compartment of each cell was filled with the receptor fluid (PBS) and was continuously stirred. The skin samples were placed on the receptor compartment. The donor compartment was then placed onto the skin samples. […]
A composition containing 2 wt % acetyl trifluoromethylphenyl valylglycine was applied to the skin sample at a rate of 10 mg/cell using a positive displacement pipette and the exact amount applied was determined by weight then recorded (Sartorius Entris II Essential Analytical balance, Thermo-Fisher). […]
The skin was then stripped with consistent weight and time of application. […] The strips samples were stored with solvent (methanol) at −20° C. for a maximum of 5 days before being analyzed. […] The RS vials were stored with solvent (methanol) at −20° C. for a maximum of 7 days before being analyzed. Dermis and epidermis samples were stored with solvent at −20° C. for a maximum of 7 days before being analyzed. The receptor fluid was taken 16 hours after the application and the samples were analyzed.
Receptor fluid samples were stored at −20° C. for a maximum of 6 days before being analyzed. […] Samples were stored at −20° C. for a maximum of 5 days before being analyzed.
The final extract was analyzed by LC-MS/MS. […]

[3] = test system: normal human skin samples (explants); test: Ex vivo skin model, H&E staining (overall tissue health); assay type: cell-based; details: 0.003% retinol in media, 7-day culture
[4] = test system: desmocollin-1 (DSC1) expression; test: Ex vivo skin model, desmocollin-1 immunohistochemical staining; assay type: cell-based, human; details: 0.003% retinol in media, 7-day culture
Experimental: The effect of acetyl trifluoromethylphenyl valylglycine and/or retinoids on skin turnover/desquamation, filaggrin expression, desmocollin-1 expression was evaluated in an ex vivo skin model. In this study, the effects of acetyl trifluoromethylphenyl valylglycine (0.1%), retinol (0.003%) and acetyl trifluoromethylphenyl valylglycine+retinol on the skin were evaluated by H&E (assessing for overall tissue health), filaggrin (assessing the level of barrier renewal) and desmocollin-1 (assessing the tight junction between the keratinocytes). Fresh post-abdominoplasty normal human skin samples (3 lots, age 36-59 years old, Hispanic/Caucasian/African American, female) were acquired from BioIVT Inc. (Westbury, N.Y.). Tissue was defatted and cleaned of blood residue. Explant samples were then created using a 12 mm biopsy punch. Samples were cleaned with sterile PBS. Skin biopsies not receiving treatment served as controls. Skin explants were maintained at air-liquid interface at 37° C. and 5% CO2 in four different treatment groups (n=3 per media type): • 1. […] The primary staining was followed by rabbit anti-mouse IgG or anti-rabbit Poly-HRP-IgG respectively and were detected using the Bond Polymer Refine Detection kit (DS9800, Leica Biosystems, UK). […]

| amount penetrated through the stratum corneum [2] | amount penetrating past the stratum corneum barrier into epidermis, dermis and receptor fluid [2] | dermal dose [2] | SMILES | expression of filaggrin [1] | change in H&E [3] | expression of desmocollin-1 [4] |
| --- | --- | --- | --- | --- | --- | --- |
| about 0.08 wt % | about 0.8% | at least 0.08 wt % | CC(=O)N(c1cccc(C(F)(F)F)c1)C(C(=O)NCC(=O)O)C(C)C (stereo not drawn) [acetyl trifluoromethylphenyl valylglycine] | increases the expression | – | – |
| – | – | – | CC1=C(/C=C/C(C)=C/C=C/C(C)=C/CO)C(C)(C)CCC1 [retinol] | – | some mild level of skin irritation | downward expression |

— patent US20230190608A1, “COMPOSITIONS AND METHODS FOR IMPROVING THE APPEARANCE OF SKIN” (L'Oreal, priority 2021, published 2023)
